Columns and labels:
[1] = test system: cerebellar neurons on MAG-expressing Chinese hamster ovary (CHO) cells; test: Direct treatment of cerebellar neurons with rolipram; neurite outgrowth on MAG-expressing CHO cells; format: cell-based, rat
Method: Cerebellar neurons from P5 rats were isolated as described previously (Cai et al., 1999) Briefly, cerebellum was treated with 0.025% of trypsin, triturated and incubated for 10 min at 37° C. Trypsinization was stopped by adding an equal amount of DMEM containing 10% fetal calf serum (FCS). Cells were centrifuged at 800 rpm for 5 min. The cells were resuspended to a single-cell suspension in 2 ml of SATO (see Cai et al., 1999, herein incorporated by reference). The concentration of cells were adjusted to 6×10^4 cells/ml. […] Where indicated, dbcAMP (1 mM) or rolipram (0.1 uM, 0.25 uM, 0.5 uM or 1.0 uM) was added to the media. After 18 hours of culture, neurons were fixed and immunostained with a rabbit polyclonal antibody against […] (GAP43) to visualize the neurites. The length of the longest neurite of the first two hundred GAP43-positive neurons was determined using the Simple 32™ software (see Cai et al., 1999). The mean length of a neurite was determined and presented as the average length+/−SEM in micrometers (um). Results are expressed as a percentage of neurite length from neurons grown in the absence of dbcAMP or rolipram.

[2] = test system: rat model of arthritis; conditions: higher concentrations (5-10 and 20 umol/kg), rats; cited from earlier work
[3] = test system: rats; conditions: cited from earlier work
[4] = test system: animal model for multiple sclerosis; conditions: cited from earlier work
[5] = test system: mice; conditions: cited from earlier work
[6] = test system: rats with moderate spinal cord contusion; test: Moderate contusive injury to the spinal cord; BBB test of hindlimb locomotion; format: in vivo, rat
Text: (§1) A “BBB Score” is the result of a test developed by Basso, Beattie and Bresnahan as a modifed 21-point open field locomoter scale on which to measure the extent of recovery of motor function in rats with after spinal cord injury. See, e.g, Basso et al., J. Neurotrauma 13(7):343-59 (1996); Beattie et al. (1997), herein incorporated by reference.
Adult rat spinal cord were exposed and injured with a weight drop device (NYU). See Beattie et al. (1997) and Basso et al. (1996). At the same time as the injury was inflicted, rolipram was delivered subcutaneously via minipumps at 0.07 nmol/kg/hour for 2 weeks. One week after injury, Schwann cells, which had been grown and purified in culture, were injected into the lesion site along with 4 injections, each of 0.2 ul, of 1 mM dbcAMP. As a negative control, animals were injected with Schwann cells alone. Other animals were administered dbcAMP and Schwann cells. One group of animals was administered four injections, each of 0.2 ul, of 1 mM dbcAMP one week after injury. Another group was administered four injections, each of 0.2 ul, of 50 mM dbcAMP one week after injury. Another group was administered four injections, each of 0.2 ul, of 50 mM dbcAMP one day after injury. Animals were assessed on a weekly basis for hindlimb locomotion using the BBB test.

[7] = test system: hippocampal slices; conditions: cited from earlier work
[8] = test system: cerebellar neurons on purified, immobilized myelin; test: Priming of cerebellar neurons with rolipram; neurite outgrowth on purified, immobilized myelin; format: cell-based, rat; conditions: priming with rolipram 0.25 uM, FIG. 2B
Method: (§2) Isolated cerebellar neurons in SATO media (prepared as in Example 1) were plated onto poly-L-lysine-coated dishes at 1×10^6 cells/dish. Where indicated, either BDNF at a concentration of 200 ng/ml, or rolipram at a concentration 0.1 uM or 0.25 uM (all from Sigma) was added. After culture for 18 hours (termed priming), neurons were removed with 0.1% trypsin. Trypsinization was stopped by adding 5 ml of DMEM containing 10% FCS. The primed neurons were centrifuged at 800 rpm for 6 min and resuspended in SATO media. The concentration of cells were adjusted to 6×10^4 cells/ml. […] Myelin was prepared as described previously (Cai et al., 1999) from rat CNS white matter. Neurons were cultured overnight before being fixed and immunostained for GAP43 to visualize the neurites. The length of the longest neurite per neuron, from 180-200 neurons, was measured. Results are presented as the average length+/−SEM in micrometers (um). (See, e.g., U.S. Pat. Nos. 5,932,542 and 6,203,792).

[9] = test system: DRG neurons on MAG-expressing CHO cells; test: Continuous subcutaneous rolipram delivery by minipumps to P30 rats; neurite outgrowth of isolated DRG neurons on MAG-expressing CHO cells; format: in vivo, rat; conditions: for axonal outgrowth in the presence of MAG and on control CHO cells: minipump 0.4 umol/kg/hour
Method: Rolipram was delivered subcutaneously with ALZET 2001 minipumps. Minipumps were inserted subcutaneously under the skin of the animals' backs. Two minipumps were used for each animal; the combined flow rate was 2 ul/hour. Rolipram was dissolved in DMSO and sterile saline was added to adjust the doses of rolipram that were released from minipumps every hour. After 24 hours of treatment, DRG neurons were isolated from control and treated animals and plated onto a monolayer of MAG-expressing CHO cells or a monolayer of control CHO cells. Neurons were cultured overnight before being fixed and immunostained for GAP43 to visualize the neurites. The length of the longest neurite per neuron from 180-200 neurons was measured. Results are expressed as a percentage of growth of the neurons isolated from control animals and are shown as the average length+/−SEM presented as percentage of growth on control cells.
In order to determine whether longer continuous treatment with a PDE4 inhibitor would increase the relief of inhibition of neurite outgrowth by myelin or MAG, rolipram was administered subcutaneously by minipump (0.4 umol/kg/hour). After 1, 2 or 3 days of continuous rolipram treatment, DRG neurons were isolated from control and treated animals and plated onto a monolayer of MAG-expressing CHO cells or a monolayer of control CHO cells. Neurons were cultured overnight before being fixed and immunostained for GAP43 to visualize the neurites. The length of the longest neurite per neuron from 180-200 neurons was measured. Results are expressed as a percentage of growth of the neurons isolated from control animals and are shown as the average length+/−SEM, presented as a percentage of growth on control cells.

[10] = test system: DRG neurons on MAG-expressing CHO cells; test: Subcutaneous rolipram injections into P30 rats; neurite outgrowth of isolated DRG neurons on MAG-expressing CHO cells; format: in vivo, rat
Method: (§3) In order to determine whether a PDE4 specific inhibitor could be used to prime neurons in vivo and prevent inhibition of neurite outgrowth by myelin and MAG, rolipram was injected subcutaneously into P12 and P30 rats every 3 hours for 24 hours. For all experiments, rolipram was dissolved in DMSO and sterile saline was added to adjust the concentrations. The final volume of the rolipram solution was 0.2 ml for each injection. At each time point, a single rolipram injection was given. Rolipram was injected subcutaneously with insulin syringes (Becton Dickinson 1 ccU-100 insulin Syringe) under the skin of the rat's neck (for all experiments) and in various other regions (only for first experiment using P12 rats). Control animals were injected with a 0.2 ml mixture of DMSO and sterile saline without rolipram, following the same schedule.
In a second series of experiments, we injected increasing concentrations of rolipram subcutaneously into older animals (postnatal day 30; P30) every 3 hours for 24 hours and, as above, studied neurite outgrowth of isolated DRG neurons in the presence or absence of MAG.
DRG neurons were isolated from control and treated P30 animals and plated onto a monolayer of MAG-expressing CHO cells or a monolayer of control CHO cells. Neurons were cultured overnight before being fixed and immunostained for GAP43 to visualize the neurites, as described in Example 1. The length of the longest neurite per neuron from 180-200 neurons was measured. Results are expressed as a percentage of growth of the neurons isolated from control animals and are shown as the average length+/−SEM presented as a percentage of growth on control cells.
We next determined whether the effects of rolipram were time dependent. Rolipram (0.5 umol/kg) was administered by repeated subcutaneous injections to P30 rats for increasing amounts of time. DRG neurons were isolated from control and treated animals and plated onto a monolayer of MAG-expressing CHO cells or a monolayer of control CHO cells. Neurons were cultured overnight before being fixed and immunostained for GAP43 to visualize the neurites. The lengths of the longest neurite per neuron from 180-200 neurons were measured. Results are expressed as a percentage of growth of the neurons isolated from control animals and are shown as the average length+/−SEM presented as percentage of growth on control cells.

[11] = test system: cerebellar neurons and DRG neurons on MAG-expressing CHO cells; test: Subcutaneous rolipram injections into P12 rats; neurite outgrowth of isolated neurons on MAG-expressing CHO cells; format: in vivo, rat
Method: as §3
Rolipram was injected subcutaneously into P12 rats at concentrations of 0, 7.5, 20, 25 or 40 nmol/kg every 3 hours for 24 hours before sacrificing. […] Cerebellar neurons were isolated as described in Example 1. Dorsal root ganglia (DRG) neurons were isolated as described previously (De Bellard et al., 1996). Briefly, ganglia were removed from the animals and incubated in 5 ml of SATO media containing 0.025% of trypsin and 0.15% of collagenase type I (Worthington) for 1 hour at 37° C. The ganglia were triturated and trypsinization was stopped by adding 5 ml of DMEM containing 10% FCS. Ganglia were centrifuged at 800 rpm for 6 min, and resuspended in SATO. Neurons were cultured overnight on CHO monolayers as described in Example 1 before being fixed and immunostained for GAP43 to visualize the neurites, as described in Example 1. As a positive control, some neurons from control animals were also cultured overnight in the presence of 1 mM dbcAMP. The length of the longest neurite per neuron, from 180-200 neurons, was measured and results are the average length+/−SEM. Results are expressed as a percentage of growth of the neurons isolated from control animals, treated with saline/DMSO injections and plated on control CHO cells, without dbcAMP or rolipram treatment.

[12] = test system: rats with complete spinal cord transection; test: Complete transection of the spinal cord with Schwann cell bridge; BBB test of hindlimb locomotion; format: in vivo, rat
Text: as §1
Adult rat spinal cords were completely transected at the T8 cord level and the next caudal segment was removed (Xu et al. (1997), herein incorporated by reference). Schwann cells were purified in culture from adult rat sciatic nerve, suspended in Matrigel: DMEM (30:70), and drawn into 8 mm long polymeric guidance channels at a density of 120×10^6 cells/ml. Xu et al. (1997). Each cut stump was inserted 1 mm into the channel. At the time of transection, a Schwann cell bridge was implanted at the injury site and rolipram was delivered subcutaneously via minipump at 0.07 umol/kg/hour for two weeks as described in Example 3B. As a negative control, animals were delivered saline only. As a positive control, 5 ul of 10 mM dbcAMP was infused in the proximal and distal stump of the lesion in animals. Animals were assessed on a weekly basis for hindlimb locomotion, which is a measure of their motor recovery, using the BBB test.

[13] = test system: cerebellar neurons on MAG-expressing CHO cells; test: Priming of cerebellar neurons with rolipram; neurite outgrowth on MAG-expressing CHO cells; format: cell-based, rat; conditions: BDNF 200 ng/ml
Method: as §2

crossing of the blood brain barrier ([11]; inferred from effect on cerebellar (CNS) and DRG neurons after s.c. administration): crossed the blood brain barrier
SMILES: COc1ccc(C2CNC(=O)C2)cc1OC1CCCC1 (stereo not shown) [rolipram]
inhibition of axonal outgrowth by MAG ([1]; rolipram 0.25 uM-1.0 uM in media, 18 hours culture, P5 rat cerebellar neurons, FIG. 1): partially blocks
efficiency of blocking the inhibition of axonal outgrowth by MAG compared to dibutyryl-cAMP ([1]; rolipram 0.5 uM, comparator dbcAMP 1 mM): 80%
dose dependence of the effect on MAG inhibition of axonal outgrowth ([1]; rolipram 0.1-1.0 uM): dose-dependent
side effects [2]: No side effects
concentrations at which sedative effects were demonstrated [3]: 5 to 10 µmol/kg
anti-inflammatory effect [4]: demonstrated
memory improving effects ([5]; 3.0 umol/kg): did not have memory improving effects
side effects ([5]; 0.1-3.0 umol/kg): No side effects
performance in a hippocampus-dependent memory task ([5]; mice, 0.1 umol/kg s.c.): improved the performance
motor skill recovery as measured by the BBB score ([6]; adult rats, minipump s.c. 0.07 nmol/kg/hour for 2 weeks plus Schwann cells and 4 injections of 1 mM dbcAMP one week after injury, from 2 up to 7 weeks after injury): significantly improved
BBB score achieved ([6]; continuous rolipram plus Schwann cells and dbcAMP, greater than 15 is scored as complete recovery): greater than 15
basal cAMP levels ([7]; 1.0-3.0 umol/kg): Increased basal cAMP levels
basal cAMP levels in hippocampal slices ([7]; up to 0.3 umol/kg): did not raise basal cAMP levels
inhibition of axonal growth by myelin after priming [8]: overcomes inhibition
axonal outgrowth in the presence of MAG and on control CHO cells ([9]; 2 days): significantly promoted
axonal outgrowth in the presence of MAG and on control CHO cells ([9]; 3 days): even further promoted
optimal continuous dose for subsequent neuronal growth and regeneration ([9]; s.c. minipump, 0.4, 0.5, 0.7 umol/kg/hour tested): 0.4 µmol/kg/h
inhibition of DRG neurons by MAG after 24 hours of continuous treatment ([9]; s.c. minipump, 24 hours): no longer inhibited by MAG
length of the neurites, 1, 2 and 3 days of treatment compared ([10]; 0.5 umol/kg intermittent s.c. injections every three hours): no significant difference
length of the axons of DRG neurons, 24 hours treatment in comparison to 6 hours ([10]; 0.5 umol/kg repeated s.c. injections, FIG. 5): increased
inhibition of axonal outgrowth by MAG ([10]; 0.1-2.0 umol/kg s.c. every 3 hours for 24 hours, FIG. 4): blocked (i.e., relieved) by rolipram in a dose-dependent manner
most effective subcutaneous dose for relieving MAG inhibition ([10]; s.c. every 3 hours for 24 hours): 0.5 µmol/kg
subsequent inhibition of neuronal growth by MAG ([11]; P12 rats, 7.5 nmol/kg s.c. every 3 hours for 24 hours): effectively blocks
inhibition of neuronal growth by MAG ([11]; P12 rats, 25 nmol/kg s.c. every 3 hours for 24 hours): essentially completely blocked
most effective subcutaneous dose for relieving MAG inhibition ([11]; P12 rats, s.c. every 3 hours for 24 hours): 20 nmol/kg
neurite length on control CHO cells ([11]; P12 rats, s.c. injections for 24 hours, control cells not expressing MAG): did not affect neurite length
BBB score (motor recovery) ([12]; adult rats, complete transection at T8, Schwann cell bridge, minipump s.c. 0.07 umol/kg/hour for two weeks, vs saline): significantly increases
BBB score compared with administration of dbcAMP ([12]; rolipram 0.07 umol/kg/hour s.c., dbcAMP 5 ul of 10 mM infused in the stumps): essentially the same result
blocking inhibition of axonal outgrowth by MAG after priming, compared with BDNF priming ([13]; priming 18 hours with rolipram 0.25 uM, FIG. 2): almost as effective as priming cerebellar neurons with BDNF
length of neurites on monolayer of CHO cells expressing MAG, as % of length of neurons treated with BDNF ([13]; priming with rolipram 0.25 uM): 95%

Source: patent publication US20030229134A1, “Methods for stimulating nervous system regeneration and repair by inhibiting phosphodiesterase type 4” (priority 2000, published 2003)
